Reference: patent EP4682156A1, “LINKER AND DRUG CONJUGATE USING SAME, AND ANTIBODY-DRUG CONJUGATE AND USE THEREOF” (Shanghai Affinity Biopharmaceutical Co., Ltd., priority 2023, dated 2024)
Where two headings read alike, the source gives them in different places. *1 amine or outer side, *2 acyl side, *3 side chain or, on linkers, in order; H or OH if unused. Where a SMILES comes first, the peptide text is derived from it. [ ]: non-standard residue; d: D form. The star is where a group is joined. Doxorubicin(3'-N) = COc1cccc2c1C(=O)c1c(O)c3c(c(O)c1C2=O)C[C@@](O)(C(=O)CO)C[C@@H]3O[C@H]1C[C@H](N*)[C@H](O)[C@H](C)O1; Exatecan = CC[C@@]1(O)C(=O)OCc2c1cc1n(c2=O)Cc2c-1nc1cc(F)c(C)c3c1c2[C@@H](N*)CC3; X8 = CCc1c2c(nc3ccc(O)cc13)-c1cc3c(c(=O)n1C2)COC(=O)[C@@]3(CC)OCN*; X5 = CCc1c2c(nc3ccc(OCN*)cc13)-c1cc3c(c(=O)n1C2)COC(=O)[C@]3(O)CC; X1 = O=C(CCCCCOC1O[C@H](CO)[C@H](O)[C@H](O)[C@H]1N[*:1])[*:2]; X9 = Nc1ccn([C@@H]2O[C@H](COCN*)[C@@H](O)C2(F)F)c(=O)n1; Dolaproine = CO[C@@H]([C@@H]1CCCN1)[C@@H](C)C(=O)O; Hexanoyl(6-maleimido) = O=C1C=CC(=O)N1CCCCCC(=O)*; Dil = CC[C@H](C)[C@H](NC)[C@@H](CC(=O)O)OC; X4 = CCCCc1nc2c(N)nc3ccccc3c2n1CCCCN*; X7 = O=C(OC1[C@H]2CCC#CCC[C@@H]12)*; DBCO = C1#Cc2ccccc2N(*)Cc2ccccc21; NHCH2OCH2CO = O=C(COCN[*:1])[*:2]; X3 = C[C@@H](N*)[C@@H](O)c1ccccc1; X6 = O=C1C=C(Br)C(=O)N1CCC(=O)*; X2 = COCCOCCOCCOCCOCCOCC(=O)*; Suc = O=C(CCC(=O)[*:2])[*:1]; NMeV = CN[C@H](C(=O)O)C(C)C; PEG3 = NCCOCCOCCOCCC(=O)O; GABA = NCCCC(=O)O

Assays:
cathepsin L = cathepsin L (Homo sapiens, UniProt P07711); assay: Enzymatic cleavage by cathepsin L, released DXD quantified by HPLC; type: biochemical; design: Enzymatic cleavage efficiency %: concentration or dose not given beside the values
[1] = human
[2] = Stability in human plasma; conditions: within 20 hours
Human Fibrosarcoma = test system: Human Fibrosarcoma; design: species or system Nude mice; conditions: mouse, in vivo

cathepsin L, sequence (P07711 114-333): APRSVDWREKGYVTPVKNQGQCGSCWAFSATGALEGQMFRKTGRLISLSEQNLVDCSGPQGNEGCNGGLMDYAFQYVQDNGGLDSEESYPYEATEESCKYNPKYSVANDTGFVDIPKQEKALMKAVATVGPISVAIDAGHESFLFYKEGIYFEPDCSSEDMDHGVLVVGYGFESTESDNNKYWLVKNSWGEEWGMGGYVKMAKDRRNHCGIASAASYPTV

SMILES | Enzymatic cleavage efficiency % (cathepsin L) | Substrate content % [2] | other results
CC[C@@]1(O)C(=O)OCc2c1cc1n(c2=O)Cc2c-1nc1cc(F)c(C)c3c1c2[C@@H](NC(=O)COCNC(=O)[C@@H](N)CC(C)C)CC3 [L-AM-DXD, Leu-AM-DXd, reference compound] |  |  | DXD produced, share of the reaction substrate (enzymatic cleavage activation efficiency) (cathepsin L; pH 6): 1.45%
COc1cccc2c1C(=O)c1c(O)c3c(c(O)c1C2=O)C[C@@](O)(C(=O)CO)C[C@@H]3O[C@H]1C[C@H](NC(=O)[C@H](CC(C)C)NC(=O)[C@H](Cc2ccccc2)NC(=O)CNC(=O)CNC(=O)CCCCCN2C(=O)C=CC2=O)[C@H](O)[C@H](C)O1 [S1] ({Hexanoyl(6-maleimido)}-GGFL-{Doxorubicin(3'-N)}) | 90.5% |  | Generated load % [1]: 0.0%; Substrate content % [1]: 100%
CC[C@@]1(O)C(=O)OCc2c1cc1n(c2=O)Cc2c-1nc1cc(F)c(C)c3c1c2[C@@H](NC(=O)[C@H](CC(C)C)NC(=O)[C@H](Cc1ccccc1)NC(=O)CNC(=O)CNC(=O)CCCCCN1C(=O)C=CC1=O)CC3 [S2] ({Hexanoyl(6-maleimido)}-GGFL-Exatecan) | 91.1% | 100% | 
CCCCc1nc2c(N)nc3ccccc3c2n1CCCCNC(=O)[C@H](CC(C)C)NC(=O)[C@H](Cc1ccccc1)NC(=O)CNC(=O)CNC(=O)CCCCCN1C(=O)C=CC1=O [S3] ({Hexanoyl(6-maleimido)}-GGFL-X4) |  | 100% | Enzymatic cleavage efficiency % (cathepsin L; cathepsin L, within 20 h): 91.0%
CC[C@H](C)[C@@H]([C@@H](CC(=O)N1CCC[C@H]1[C@H](OC)[C@@H](C)C(=O)N[C@H](C)[C@@H](O)c1ccccc1)OC)N(C)C(=O)[C@@H](NC(=O)[C@H](C(C)C)N(C)C(=O)[C@H](CC(C)C)NC(=O)[C@H](Cc1ccccc1)NC(=O)CNC(=O)CNC(=O)CCCCCN1C(=O)C=CC1=O)C(C)C [S5] ({Hexanoyl(6-maleimido)}-GGFL[NMeV]V[Dil][Dolaproine]-X3) | 93.1% |  | 
CC[C@@]1(O)C(=O)OCc2c1cc1n(c2=O)Cc2c-1nc1cc(F)c(C)c3c1c2[C@@H](NC(=O)COCNC(=O)[C@H](CC(C)C)NC(=O)[C@H](Cc1ccccc1)NC(=O)CNC(=O)CNC(=O)CCCCCN1C(=O)C=CC1=O)CC3 [S6] ({Hexanoyl(6-maleimido)}-GGFL[NHCH2OCH2CO]-Exatecan) | 98.0% | 98.0% | Generated load % [2]: 2.0%
CC[C@@]1(O)C(=O)OCc2c1cc1n(c2=O)Cc2c-1nc1cc(F)c(C)c3c1c2[C@@H](NC(=O)COCNC(=O)[C@H](CC(C)C)NC(=O)[C@H](Cc1ccccc1)NC(=O)CNC(=O)CNC(=O)[C@H](CCCCNC(=O)COCCOCCOCCOCCOCCOC)NC(=O)CCCCCN1C(=O)C=CC1=O)CC3 [S8] ({Hexanoyl(6-maleimido)}-K(X2)GGFL[NHCH2OCH2CO]-Exatecan) | 98.0% | 98.0% | Anti-tumor rate% Day 20 (Human Fibrosarcoma): 98%; Tumor volume(mm^3) Day 20 (Human Fibrosarcoma): 15 mm^3; treatment efficacy compared with DXd (Human Fibrosarcoma): significantly improved treatment efficacy
CCc1c2c(nc3ccc(OCNC(=O)[C@H](CC(C)C)NC(=O)[C@H](Cc4ccccc4)NC(=O)CNC(=O)CNC(=O)CCCCCN4C(=O)C=CC4=O)cc13)-c1cc3c(c(=O)n1C2)COC(=O)[C@]3(O)CC [S14] ({Hexanoyl(6-maleimido)}-GGFL-X5) | 98.0% | 98.0% | 
CCc1c2c(nc3ccc(O)cc13)-c1cc3c(c(=O)n1C2)COC(=O)[C@@]3(CC)OCNC(=O)[C@H](CC(C)C)NC(=O)[C@H](Cc1ccccc1)NC(=O)CNC(=O)CNC(=O)CCCCCN1C(=O)C=CC1=O [S15] ({Hexanoyl(6-maleimido)}-GGFL-X8) | 95.1% |  | 
CC(C)C[C@H](NC(=O)[C@H](Cc1ccccc1)NC(=O)CNC(=O)CNC(=O)CCCCCN1C(=O)C=CC1=O)C(=O)NCOC[C@H]1O[C@@H](n2ccc(N)nc2=O)C(F)(F)[C@@H]1O [S16] ({Hexanoyl(6-maleimido)}-GGFL-X9) | 92.3% |  | 
CC[C@@]1(O)C(=O)OCc2c1cc1n(c2=O)Cc2c-1nc1cc(F)c(C)c3c1c2[C@@H](NC(=O)COCNC(=O)[C@H](CC(C)C)NC(=O)[C@H](Cc1ccccc1)NC(=O)CNC(=O)CNC(=O)CCCCCOC1O[C@H](CO)[C@H](O)[C@H](O)[C@H]1NC(C)=O)CC3 (stereo partly shown) [S18] (Ac-[X1]GGFL[NHCH2OCH2CO]-Exatecan) | 98.3% | 98.2% | Anti-tumor rate% Day 20 (Human Fibrosarcoma): 95%; Tumor volume(mm^3) Day 20 (Human Fibrosarcoma): 40 mm^3; treatment efficacy compared with DXd (Human Fibrosarcoma): significantly improved treatment efficacy
CC[C@@]1(O)C(=O)OCc2c1cc1n(c2=O)Cc2c-1nc1cc(F)c(C)c3c1c2[C@@H](NC(=O)[C@H](CC(C)C)NC(=O)[C@H](Cc1ccccc1)NC(=O)CNC(=O)CNC(=O)CCN1C(=O)C=C(Br)C1=O)CC3 [S26] (X6-GGFL-Exatecan) | 95.1% | 100% | 
CCCCc1nc2c(N)nc3ccccc3c2n1CCCCNC(=O)[C@H](CC(C)C)NC(=O)[C@H](Cc1ccccc1)NC(=O)CNC(=O)CNC(=O)CCOCCOCCOCCNC(=O)OC1[C@H]2CCC#CCC[C@@H]12 (stereo partly shown) [S27] |  | 100% | Enzymatic cleavage efficiency % (cathepsin L; cathepsin L, within 20 h): 94.5%
CC[C@@]1(O)C(=O)OCc2c1cc1n(c2=O)Cc2c-1nc1cc(F)c(C)c3c1c2[C@@H](NC(=O)CCCNC(=O)[C@H](CC(C)C)NC(=O)[C@H](Cc1ccccc1)NC(=O)CNC(=O)CNC(=O)CCOCCOCCOCCNC(=O)OC1[C@H]2CCC#CCC[C@@H]12)CC3 (stereo partly shown) [S28] ({X7-PEG3}-GGFL[GABA]-Exatecan) | 95.1% | 100% | 
CCCCc1nc2c(N)nc3ccccc3c2n1CCCCNC(=O)[C@H](CC(C)C)NC(=O)[C@H](Cc1ccccc1)NC(=O)CNC(=O)CNC(=O)CCOCCOCCOCCNC(=O)CCC(=O)N1Cc2ccccc2C#Cc2ccccc21 [S31] ({DBCO-Suc-PEG3}-GGFL-X4) | 97.5% |  | 
CC[C@@]1(O)C(=O)OCc2c1cc1n(c2=O)Cc2c-1nc1cc(F)c(C)c3c1c2[C@@H](NC(=O)CCCNC(=O)[C@H](CC(C)C)NC(=O)[C@H](Cc1ccccc1)NC(=O)CNC(=O)CNC(=O)CCOCCOCCOCCNC(=O)CCC(=O)N1Cc2ccccc2C#Cc2ccccc21)CC3 [S32] ({DBCO-Suc-PEG3}-GGFL[GABA]-Exatecan) | 98.0% | 100% | 
CC[C@@]1(O)C(=O)OCc2c1cc1n(c2=O)Cc2c-1nc1cc(F)c(C)c3c1c2[C@@H](NC(=O)COCNC(=O)[C@H](CC(C)C)NC(=O)[C@H](Cc1ccccc1)NC(=O)CNC(=O)CNC(=O)CCOCCOCCOCCNC(=O)CCC(=O)N1Cc2ccccc2C#Cc2ccccc21)CC3 [S34] ({DBCO-Suc-PEG3}-GGFL[NHCH2OCH2CO]-Exatecan) | 98.1% | 98.3% | 
